Laboratory results: the NIST ThermoML archive (doi:10.1021/acs.jced.6b00031)
± gives the expanded uncertainty stated by the source.

Assay: wn = mass fraction of the nth substance listed
Details: 101.3 kPa, Liquid, Vibrating tube method

Row | mass density (283.15 K, w1 = 0.0569) [kg/m3] | mass density (303.15 K, w1 = 0.1084) [kg/m3] | mass density (313.15 K, w1 = 0.1419) [kg/m3] | mass density (283.15 K, w1 = 0.0695) [kg/m3] | mass density (303.15 K, w1 = 0.1382) [kg/m3] | mass density (313.15 K, w1 = 0.1853) [kg/m3] | SMILES
1 | 836.8 ± 0.5 | 843.8 ± 0.5 | 868.6 ± 0.5 |  |  |  | O=C(O)CCC(=O)O [butanedioic acid] + CCO
2 |  |  |  | 837.4 ± 0.5 | 852.3 ± 0.5 | 870.4 ± 0.5 | O=C(O)CCCCC(=O)O [1,6-hexanedioic acid] + CCO
